Source: patent publication US20240245780A1, “PHARMACEUTICAL COMPOSITIONS CONTAINING STABLE AMORPHOUS SOLID SOLUTIONS AND DISPERSIONS” (Eastman Chemical Company, priority 2021, published 2024)
Where two headings read alike, the source gives them in different places.

Experiments:
[1] = cited from earlier work
[2] = Solubility study of PSD in heated SAIB, HPLC; assay type: physicochemical
Procedure: Analysis of drugs was performed by HPLC. […] Solubility was determined in three replicates for each drug.
SAIB was heated to 150° C. (RFX, DST, DLT, CYS, ITZ, SRL, APT and CBZ) or 130° C. (TAC and APZ), followed by addition of a known amount of the drug to dissolve in 30 min. Approximately, 100 mg of each sample were transferred to a 100-mL volumetric flask, and volume was made up with the mobile phase to dissolve the drug. The amount of dissolved drug was determined by validated HPLC.

[3] = JECFA 1996, including pediatric populations; cited from earlier work
[4] = SAIB temperature 150° C., 30 min, three replicates

| Compound | pKa [1] | Increase in Solubility Relative to Water [2] | Solubility in SAIB [2, 4] | also measured |
| --- | --- | --- | --- | --- |
| C[C@@H](O[C@H]1OCCN(Cc2n[nH]c(=O)[nH]2)[C@H]1c1ccc(F)cc1)c1cc(C(F)(F)F)cc(C(F)(F)F)c1 [Aprepitant] | 10 | 55.7x |  |  |
| O=C1CCc2ccc(OCCCCN3CCN(c4cccc(Cl)c4Cl)CC3)cc2N1 [Aripiprazole] |  |  |  | Solubility in SAIB [2]: 21.6 ± 2.6 mg/g |
| NC(=O)N1c2ccccc2C=Cc2ccccc21 [Carbamazepine] |  | 532.3x | 76.5 ± 4.0 mg/g | Solubility in SAIB (in words) ([2]; SAIB at 130 or 150° C.): high solubility; Solubility in SAIB ([2]; SAIB temperature 150° C., 30 min, three replicates, listed as CBZ): 76.5 ± 4.0 mg/g |
| Cc1nc(Nc2ncc(C(=O)Nc3c(C)cccc3Cl)s2)cc(N2CCN(CCO)CC2)n1 [Dasatinib] |  |  | insoluble |  |
| C[C@@H]1CCO[C@H]2Cn3cc(C(=O)NCc4ccc(F)cc4F)c(=O)c(O)c3C(=O)N12 [Dolutegravir] | 8 |  | 1.7 ± 0.4 mg/g |  |
| CCC(C)n1ncn(-c2ccc(N3CCN(c4ccc(OCC5COC(Cn6cncn6)(c6ccc(Cl)cc6Cl)O5)cc4)CC3)cc2)c1=O (stereo not shown) [Itraconazole] |  |  | insoluble |  |
| CO[C@H]1/C=C/O[C@@]2(C)Oc3c(C)c(O)c4c(O)c(c5c(nc6cc(C)ccn65)c4c3C2=O)NC(=O)/C(C)=C\C=C\[C@H](C)[C@H](O)[C@@H](C)[C@@H](O)[C@@H](C)[C@H](OC(C)=O)[C@@H]1C [Rifaximin] | 7 |  |  | Solubility in SAIB (in words) [2]: high solubility |
| CO[C@H]1C[C@@H]2CC[C@@H](C)[C@@](O)(O2)C(=O)C(=O)N2CCCC[C@H]2C(=O)O[C@H]([C@H](C)C[C@@H]2CC[C@@H](O)[C@H](OC)C2)CC(=O)[C@H](C)/C=C(\C)[C@@H](O)[C@@H](OC)C(=O)[C@H](C)C[C@H](C)/C=C/C=C/C=C/1C [Sirolimus] | 10 |  | 1.9 ± 0.0 mg/g |  |
| C=CC[C@@H]1/C=C(\C)C[C@H](C)C[C@H](OC)[C@H]2O[C@@](O)(C(=O)C(=O)N3CCCC[C@H]3C(=O)O[C@H](/C(C)=C/[C@@H]3CC[C@@H](O)[C@H](OC)C3)[C@H](C)[C@@H](O)CC1=O)[C@H](C)C[C@@H]2OC [Tacrolimus] | 10 | 9591.7x |  | Solubility in SAIB (in words) ([2]; SAIB at 130 or 150° C.): high solubility; Solubility in SAIB ([2]; SAIB temperature 130° C., 30 min, three replicates, listed as TAC): 115.1 ± 2.3 mg/g; Solubility in SAIB ([2]; SAIB temperature 130° C., 30 min, three replicates, listed as Tracolimus): 115.1 ± 2.3 mg/g |
| sucrose acetate isobutyrate [SAIB] |  |  |  | log P of SAIB [1]: 6; permanent acceptable daily intake [3]: up to 20 mg/kg body weight |
